These compounds were tested on Vaccinia virus (assay: Concentration required to reduce vaccinia virus induced cytopathogenicity in rabbit cell kidney culture). Conditions: Orthopoxvirus vaccinia.
Format: functional, organism-based
Compound `Nc1nc(=O)n([C@H]2C[C@H](O)[C@@H](CO)O2)cc1/C=C/Br` has a Concentration of over 400 µg/mL. `Cc1cn(C2CC(O)C(CCl)O2)c(=O)nc1-n1cncn1` (centres undefined) gave a Concentration of over 10 µg/mL. Work on `O=c1nc(-n2cncn2)c(/C=C/Br)cn1C1CC(O)C(CCl)O1` (centres undefined) yielded a Concentration of over 100 µg/mL. `Cc1cn([C@H]2C[C@H](O)[C@@H](CO)O2)c(=O)nc1-n1cncn1` showed a Concentration of over 40 µg/mL. `O=c1nc(-n2cncn2)c(/C=C/Br)cn1[C@H]1C[C@H](O)[C@@H](CO)O1` was tested, and the Concentration was 7 µg/mL. `CC(=O)OC[C@H]1O[C@@H](n2cc(/C=C/Br)c(-n3cncn3)nc2=O)C[C@@H]1OC(C)=O` showed a Concentration of 20 µg/mL. `CC(=O)OC[C@H]1O[C@@H](n2cc(C)c(-n3cncn3)nc2=O)C[C@@H]1OC(C)=O` showed a Concentration of over 40 µg/mL. `O=c1[nH]c(=O)n([C@H]2C[C@H](O)[C@@H](CO)O2)cc1/C=C/Br` [BRIVUDINE] gave a Concentration of 10 µg/mL. `CC(=O)OC[C@H]1O[C@@H](n2cc(/C=C/Br)c(=O)[nH]c2=O)C[C@@H]1OC(C)=O` gave a Concentration of 40 µg/mL.

Source: ChEMBL document CHEMBL1123958, “Synthesis and antiviral properties of (E)-5-(2-bromovinyl)-2'-deoxycytidine-related compounds” (J Med Chem, 1988)
